What was measured:
[1] = test system: phosphatase activity in the serum; test: Incubation of H1b-ADP with FBS, product analysed by LC-MS; format: in vitro ADME, bovine; details: incubated with FBS, LC-MS; AMP formed
Source text: FBS contains 110-352 U/ml alkaline phosphatase.

[2] = test system: CT26 cells; test: CT26 tumor xenograft model, tumor volume; format: in vivo, BALB/c mice
Description: We used a CT26 tumor xenograft model to test the anti-cancer activity of H1b-ADP. Tumor cells (2×10^5 per 100 uL CT26 cells) were inoculated subcutaneously into the right flank of BALB/c mice. At day 6, mice whose tumors had reached 3-5 mm in diameter were randomized and grouped into three groups (n=8 each group), control, HMP-1bP (580 ug), and H1b-ADP (1.2 ug). Injections were performed using a total volume of 20 uL at days 6, 8, 10, 12, and 14 post inoculation. Tumor volumes were calculated every 2 days from caliper measurements of tumor dimension using the formula (L×W^2)/2, where L is the longer measurement.
To test whether H1b-ADP could augment an anti-tumor response by a checkpoint inhibitor, we tested the effects of co-administration with an anti-PD1 antibody. Tumor cells (2×10^5 per 100 μL CT26 cells) were inoculated subcutaneously into the left and right flanks of BALB/c mice. At day 7, mice whose tumors had reached 5 mm in diameter were randomized and grouped (n=8 each group) into the following four groups: anti-PD1 antibody; rat IgG; H1b-ADP+rat IgG; H1b-ADP+anti-PD1 antibody. We utilized RMP1-14 as the anti-PD1 antibody (10 mg/kg) and a rat IgG 2a (2A3) as the control IgG. Each of the anti-PD-1 antibody and the control IgG was administered intraperitoneally in a 200 μL volume on days 6, 10, 12, and 17 post-inoculation. H1b-ADP (6.2 μg) was intratumorally injected in a 20 μL volume at day 6, 8, 10, 12, and 15. Tumor volumes were calculated every 2 days from caliper measurements of tumor dimensions using the formula (L×W^2)/2, where L is the longer measurement. The results are shown in FIG. 13A for injected tumors and FIG. 13B for distant tumors. […]
The experiment was carried out as combo experiments of anti-PD1 except for the following variations. At day 6, mice whose tumors had reached 5 mm in diameter were randomized and grouped into the following four groups: c-di-AM(PS)2; PBS; H1b-ADP; H1b-ADP+c-di-AM(PS)2. We utilized c-di-AM(PS)2 as the STING agonist. Each of the c-di-AM(PS)2 (1 μg) and H1b-ADP (6.2 μg) was administered intratumorally in a 20 μL volume on days 6, 7, and 9 post-inoculation.
The experiment was carried out as combo experiments of anti-PD-1 except for the following variations. At day 6, mice whose tumors had reached 5 mm in diameter were randomized and grouped into the following four groups: anti-CD4 antibody (GK1.5 clone, BE0003-1, BioXcell); rat IgG; H1b-ADP+rat IgG; H1b-ADP+anti-CD4 antibody. Each of the anti-CD4 antibody (200 μg) and the control IgG (200 μg) was administered intraperitoneally in a 200 μL volume on days 3, 4, 8 post-inoculation. H1b-ADP (6.2 μg) was administered intratumorally in a 20 μL volume on days 6, 8, 10, 12, 14 post-inoculation.
The experiment was carried out as combo experiments of anti-PD-1 except for the following variations. At day 6, mice whose tumors had reached 5 mm in diameter were randomized and grouped into the following four groups: Resquimod; PBS; H1b-ADP; H1b-ADP+Resquimod. Resquimod (10 μg) and H1b-ADP (6.2 μg) were administered intratumorally in a 20 μL volume on days 6, 8, 11 post-inoculation.
We used a CT26 tumor xenograft model to test the anti-cancer activity of H1b-ADP derivative Compounds 1 and 2. Tumor cells (2×10^5 per 100 uL CT26 cells) were inoculated subcutaneously into the right flank of BALB/c mice. At day 7, mice whose tumors had reached 3-5 mm in diameter were randomized and grouped into three groups (n=9 each group), control, Compound 1 (50 nmol), and Compound 2 (50 nmol). Injections were performed using a total volume of 20 uL at days 7, 9, and 11 post inoculation. Tumor volumes were calculated every 2 days from caliper measurements of tumor dimension using the formula (L×W^2)/2, where L is the longer measurement.

[3] = biological target: T1, ALPK1 (Homo sapiens, UniProt Q96QP1); test: IL8 secretion in HEK293 cells (IL8 ELISA) as indicator of ALPK1 activation; details: cells cultured with fetal bovine, human or mouse serum
Description: We pre-mixed H1b-ADP with phosphatase inhibitor sodium orthovanadate (Na3VO4) before incubation with FBS.
In these experiments, serial dilutions of the compounds were added to the tissue culture media of HEK293 cells with (FIG. 27B, FIG. 28B, FIG. 29B) or without (FIG. 26, FIG. 27A, FIG. 28A, FIG. 29A) 10% FBS, as indicated in the figures. After 4 hours, the cell supernatant was collected and analyzed for IL8 concentration using IL8 ELISA (BD) as an indicator of ALPK1 activation.

[4] = biological target: T1, ALPK1; test: In vitro kinase assay of ALPK1-dependent TIFA phosphorylation; format: biochemical
Description: We performed an in vitro kinase assay with H1b-ADP and H1b-ADP-6L along with ALPK1 protein (2 nM), and TIFA protein (1.6 uM) in kinase buffer containing 50 uM ATP. TIFA phosphorylation was analyzed by denaturing gel electrophoresis followed by western blotting using an anti-phosphothreonine antibody. H1b-ADP or H1b-ADP-6L was added at 2 nM, 0.4 nM, 80 pM, 16 pM, and 3 pM.
To test this, we performed an in vitro kinase reaction for ALPK1-dependent TIFA phosphorylation in the presence of either HBP or HIdA purified from E. coli containing inactivated HIdE, or in the presence of HBP and HIdA purified from the same HIdE wild-type E. coli used in the previous experiments. Phosphorylated TIFA (three concentrations, 1%, 0.2% and […]) was detected as described above by denaturing gel electrophoresis followed by Western analysis.

T1 sequence (Q96QP1 whole entry): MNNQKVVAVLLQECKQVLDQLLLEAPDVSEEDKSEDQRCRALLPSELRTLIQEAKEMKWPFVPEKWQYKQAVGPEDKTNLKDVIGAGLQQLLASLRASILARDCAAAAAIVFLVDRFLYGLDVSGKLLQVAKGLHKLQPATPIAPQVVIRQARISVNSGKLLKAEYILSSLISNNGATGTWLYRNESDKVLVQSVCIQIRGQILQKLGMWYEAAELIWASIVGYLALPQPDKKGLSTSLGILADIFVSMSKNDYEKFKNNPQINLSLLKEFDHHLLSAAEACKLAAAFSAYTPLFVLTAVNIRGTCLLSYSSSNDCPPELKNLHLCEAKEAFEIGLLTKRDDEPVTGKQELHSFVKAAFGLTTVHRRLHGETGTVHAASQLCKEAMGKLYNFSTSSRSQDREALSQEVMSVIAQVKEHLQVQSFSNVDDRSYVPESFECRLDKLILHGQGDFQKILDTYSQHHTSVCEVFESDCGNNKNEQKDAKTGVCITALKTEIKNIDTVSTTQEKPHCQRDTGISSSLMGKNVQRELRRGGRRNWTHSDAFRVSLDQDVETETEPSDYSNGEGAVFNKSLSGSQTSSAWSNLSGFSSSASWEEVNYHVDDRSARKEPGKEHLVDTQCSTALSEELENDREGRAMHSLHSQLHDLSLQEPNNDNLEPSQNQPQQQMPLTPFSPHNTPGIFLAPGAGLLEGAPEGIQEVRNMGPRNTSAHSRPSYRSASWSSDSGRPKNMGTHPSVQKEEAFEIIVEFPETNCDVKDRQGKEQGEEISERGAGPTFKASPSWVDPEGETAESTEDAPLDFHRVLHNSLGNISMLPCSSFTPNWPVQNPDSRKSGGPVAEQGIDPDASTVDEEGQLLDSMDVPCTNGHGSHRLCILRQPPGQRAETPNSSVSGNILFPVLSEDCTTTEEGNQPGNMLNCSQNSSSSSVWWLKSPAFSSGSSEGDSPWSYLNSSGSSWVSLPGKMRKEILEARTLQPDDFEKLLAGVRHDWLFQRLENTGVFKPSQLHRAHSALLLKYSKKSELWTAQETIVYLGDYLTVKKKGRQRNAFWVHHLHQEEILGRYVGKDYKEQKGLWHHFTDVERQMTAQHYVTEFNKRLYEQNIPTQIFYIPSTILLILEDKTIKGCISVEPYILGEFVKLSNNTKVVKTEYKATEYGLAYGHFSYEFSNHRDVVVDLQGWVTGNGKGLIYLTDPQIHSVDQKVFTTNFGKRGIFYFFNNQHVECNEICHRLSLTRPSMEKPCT

Nc1ncnc2c1ncn2[C@@H]1O[C@H](COP(=O)(O)OP(=O)(O)O[C@@H]2O[C@H]([C@H](O)CO)[C@@H](O)[C@H](O)[C@@H]2O)[C@@H](O)[C@H]1O [Compound H1b-ADP, D-glycero-D-manno-heptose-1β-ADP]
H1b-ADP amount with increasing incubation time [1]: declined | tumor growth ([2]; Example 7: H1b-ADP 6.2 μg intratumoral, RMP1-14 10 mg/kg intraperitoneal): markedly suppressed tumor growth | tumor growth ([2]; intratumoral, days 6, 8, 10, 12, 14, HMP-1bP 580 ug, H1b-ADP 1.2 ug): reduced tumor growth | activity to activate ALPK1 in HEK293 cells (IL8 secretion) [3]: greatly declined | TIFA phosphorylation (ALPK1-dependent signaling) ([4]; ALPK1 2 nM, TIFA 1.6 uM, 50 uM ATP, 2 nM to 3 pM): activated ALPK1-dependent signaling | phosphorylation of the ALPK1 substrate TIFA ([4]; FIG. 7, chemically-synthesized compounds): TIFA is phosphorylated only in the presence of H1b-ADP

Source: US11186606B2, “Compositions and methods of modulating the immune response by activating alpha protein kinase 1” (Shanghai Yao Yuan Biotechnology Co., Ltd., priority 2017, dated 2021)
